According to patent US8901313B2, “6,5-heterocyclic propargylic alcohol compounds and uses therefor” (Genentech, Inc., priority 2011, dated 2014):

target: T1, nuclear factor-kappa B (NF-kB)-inducing kinase (NIK) (Homo sapiens, UniProt Q99558); assay: NIK Enzyme Inhibition Assay (Transcreener ADP assay); assay type: biochemical; conditions: purified NIK 0.2-1 nM, 10 uM ATP, fluorescence polarization, Morrison's quadratic equation; read-out: inhibitory value (Ki) for NIK
T1 construct: made in house; host or cells: baculovirus-infected insect cells
T1 sequence (Q99558 whole entry): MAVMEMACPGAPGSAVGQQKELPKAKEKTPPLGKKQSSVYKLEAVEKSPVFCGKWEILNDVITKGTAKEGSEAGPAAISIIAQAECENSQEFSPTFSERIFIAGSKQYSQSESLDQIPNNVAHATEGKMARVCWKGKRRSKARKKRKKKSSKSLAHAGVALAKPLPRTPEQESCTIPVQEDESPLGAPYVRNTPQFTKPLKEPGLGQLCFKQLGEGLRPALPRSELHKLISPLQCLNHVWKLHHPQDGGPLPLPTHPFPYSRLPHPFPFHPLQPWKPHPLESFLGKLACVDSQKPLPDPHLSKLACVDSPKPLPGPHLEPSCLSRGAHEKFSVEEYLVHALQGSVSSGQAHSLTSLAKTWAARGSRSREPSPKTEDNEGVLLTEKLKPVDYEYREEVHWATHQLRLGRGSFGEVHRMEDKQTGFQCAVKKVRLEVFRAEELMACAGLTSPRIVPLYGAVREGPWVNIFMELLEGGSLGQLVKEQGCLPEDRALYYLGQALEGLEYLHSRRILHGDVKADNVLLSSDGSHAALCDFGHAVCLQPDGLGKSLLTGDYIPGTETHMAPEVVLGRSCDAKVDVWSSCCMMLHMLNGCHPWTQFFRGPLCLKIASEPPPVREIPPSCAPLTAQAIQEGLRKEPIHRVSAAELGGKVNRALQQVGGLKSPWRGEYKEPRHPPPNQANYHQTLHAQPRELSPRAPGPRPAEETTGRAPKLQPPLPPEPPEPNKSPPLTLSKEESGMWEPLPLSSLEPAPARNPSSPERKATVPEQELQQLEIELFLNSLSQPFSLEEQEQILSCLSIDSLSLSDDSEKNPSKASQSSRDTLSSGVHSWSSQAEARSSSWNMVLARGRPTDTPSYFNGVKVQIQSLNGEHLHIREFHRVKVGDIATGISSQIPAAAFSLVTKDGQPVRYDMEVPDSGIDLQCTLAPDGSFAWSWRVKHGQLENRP

Row | Ki | Structure (SMILES)
1 | 1 nM | CN(C)C(=O)c1nn(-c2ccnc(N)n2)c2cc(C#CC(C)(O)c3cc(CO)on3)ccc12 (stereo not drawn) [Example T1.1-26, 1-(2-aminopyrimidin-4-yl)-6-[3-hydroxy-3-[5-(hydroxymethyl)isoxazol-3-yl]but-1-ynyl]-N,N-dimethyl-indazole-3-carboxamide]
2 | 2 nM | Cc1nc(C(C)(O)C#Cc2ccc3c(C(=O)N(C)C)nn(-c4ccnc(N)n4)c3c2)no1 (stereo not drawn) [Example T1.1-30, 1-(2-aminopyrimidin-4-yl)-6-[3-hydroxy-3-(5-methyl-1,2,4-oxadiazol-3-yl)but-1-ynyl]-N,N-dimethyl-indazole-3-carboxamide]
3 | 2 nM | Cc1nn(-c2ccnc(N)n2)c2cc(C#CC(C)(O)c3cc(CO)on3)ccc12 (stereo not drawn) [Example T1.1-33, 4-[1-(2-aminopyrimidin-4-yl)-3-methyl-indazol-6-yl]-2-[5-(hydroxy-methyl)isoxazol-3-yl]but-3-yn-2-ol]
4 | 2 nM | Cc1nc([C@](C)(O)C#Cc2ccc3c(C(C)(C)F)nn(-c4ccnc(N)n4)c3c2)no1 [Example T1.1-35, (2R)-4-[1-(2-aminopyrimidin-4-yl)-3-(1-fluoro-1-methyl-ethyl)indazol-6-yl]-2-(5-methyl-1,2,4-oxadiazol-3-yl) but-3-yn-2-ol]
5 | 2 nM | Cc1nc(C(C)(O)C#Cc2ccc3c(CC(C)(O)C(F)F)nn(-c4ccnc(N)n4)c3c2)no1 (stereo not drawn) [Example T1.1-36, 3-[1-(2-aminopyrimidin-4-yl)-6-[3-hydroxy-3-(5-methyl-1,2,4-oxadiazol-3-yl)but-1-ynyl]indazol-3-yl]-1,1-difluoro-2-methyl-propan-2-ol]
6 | 2 nM | Cc1nc([C@](C)(O)C#Cc2ccc3c(CO)nn(-c4ccnc(N)n4)c3c2)no1 [Example T1.1-40, (2R)-4-[1-(2-aminopyrimidin-4-yl)-3-(hydroxymethyl)indazol-6-yl]-2-(5-methyl-1,2,4-oxadiazol-3-yl)but-3-yn-2-ol]
7 | 3 nM | CC(O)(C#Cc1ccc2c(CN3CC(F)(F)C3)nn(-c3ccnc(N)n3)c2c1)c1ncccn1 (stereo not drawn) [Example T1.1-43, 4-[1-(2-aminopyrimidin-4-yl)-3-[(3,3-difluoroazetidin-1-yl)methyl]indazol-6-yl]-2-pyrimidin-2-yl-but-3-yn-2-ol]
8 | 3 nM | Cc1nn(-c2ccnc(N)n2)c2cc(C#CC(C)(O)c3nc[nH]n3)ccc12 (stereo not drawn) [Example T1.1-45, 4-[1-(2-aminopyrimidin-4-yl)-3-methyl-indazol-6-yl]-2-(1H-1,2,4-triazol-3-yl)but-3-yn-2-ol]
9 | 3 nM | CCOc1nc2ccc(C#CC(C)(O)c3ncccn3)cc2n1-c1ccnc(N)n1 (stereo not drawn) [Example T1.1-48, 4-[3-(2-aminopyrimidin-4-yl)-2-ethoxy-benzimidazol-5-yl]-2-pyrimidin-2-yl-but-3-yn-2-ol]
10 | 4 nM | CC(O)(C#Cc1ccc2c(CF)nn(-c3ccnc(N)n3)c2c1)c1ncccn1 (stereo not drawn) [Example T1.1-49, 4-[1-(2-aminopyrimidin-4-yl)-3-(fluoromethyl)indazol-6-yl]-2-pyrimidin-2-yl-but-3-yn-2-ol]
11 | 4 nM | Cc1nc([C@](C)(O)C#Cc2ccc3c(C(C)(C)O)nn(-c4nc(N)ncc4Cl)c3c2)no1 [Example T1.1-50, (2R)-4-[1-(2-amino-5-chloro-pyrimidin-4-yl)-3-(1-hydroxy-1-methyl-ethyl)indazol-6-yl]-2-(5-methyl-1,2,4-oxadiazol-3-yl) but-3-yn-2-ol]
12 | 4 nM | Cc1nn(-c2ccnc(N)n2)c2cc(C#CC(C)(O)CF)ccc12 (stereo not drawn) [Example T1.1-52, 4-[1-(2-aminopyrimidin-4-yl)-3-methyl-indazol-6-yl]-1-fluoro-2-methyl-but-3-yn-2-ol]
13 | 4 nM | CC(O)(C#Cc1ccc2c(C(=O)N3CCOCC3)nn(-c3ccnc(N)n3)c2c1)c1ncccn1 (stereo not drawn) [Example T1.1-54, [1-(2-aminopyrimidin-4-yl)-6-(3-hydroxy-3-pyrimidin-2-yl-but-1-ynyl)indazol-3-yl]-morpholino-methanone]
14 | 4 nM | CC(C)(O)c1nn(-c2ccnc(N)n2)c2cc(C#CC(C)(O)c3ccccn3)ccc12 (stereo not drawn) [Example T1.1-56, 4-[1-(2-aminopyrimidin-4-yl)-3-(1-hydroxy-1-methyl-ethyl)indazol-6-yl]-2-(2-pyridyl)but-3-yn-2-ol]
15 | 5 nM | CC(C)(O)c1nn(-c2ccnc(N)n2)c2cc(C#CC(C)(O)c3ncccn3)ccc12 (stereo not drawn) [Example T1.1-57, 4-[1-(2-aminopyrimidin-4-yl)-3-(1-hydroxy-1-methyl-ethyl)indazol-6-yl]-2-pyrimidin-2-yl-but-3-yn-2-ol]
16 | 5 nM | COCCOc1nc2ccc(C#CC(C)(O)c3ncccn3)cc2n1-c1ccnc(N)n1 (stereo not drawn) [Example T1.1-58, 4-[3-(2-aminopyrimidin-4-yl)-2-(2-methoxyethoxy)benzimidazol-5-yl]-2-pyrimidin-2-yl-but-3-yn-2-ol]
17 | 5 nM | Cc1cc(C(C)(O)C#Cc2ccc3c(C(O)(C4CCOCC4)C4CC4)nn(-c4ccnc(N)n4)c3c2)no1 (stereo not drawn) [Example T1.1-59, 4-[1-(2-aminopyrimidin-4-yl)-3-(cyclopropyl-hydroxy-tetrahydropyran-4-yl-methyl)indazol-6-yl]-2-(5-methyl-isoxazol-3-yl)but-3-yn-2-ol]
18 | 6 nM | CC(O)(C#Cc1ccc2nc(OCCO)n(-c3ccnc(N)n3)c2c1)c1ncccn1 (stereo not drawn) [Example T1.1-60, 4-[3-(2-aminopyrimidin-4-yl)-2-(2-hydroxyethoxy)benzimidazol-5-yl]-2-pyrimidin-2-yl-but-3-yn-2-ol]

The next lines start with the molecule.

Row | Structure (SMILES) | Ki
19 | Cc1cc(C(C)(O)C#Cc2ccc3nc(OCCO)n(-c4ccnc(N)n4)c3c2)no1 (stereo not drawn) [Example T1.1-27, 4-[3-(2-aminopyrimidin-4-yl)-2-(2-hydroxyethoxy)benzimidazol-5-yl]-2-(5-methylisoxazol-3-yl)but-3-yn-2-ol] | 2 nM
20 | CCOc1nc2ccc(C#CC3(O)CCn4ccnc43)cc2n1-c1ccnc(N)n1 (stereo not drawn) [Example T1.1-28, 7-[2-[3-(2-aminopyrimidin-4-yl)-2-ethoxy-benzimidazol-5-yl]ethynyl]-5,6-dihydropyrrolo[1,2-a]imidazol-7-ol] | 2 nM
21 | Cc1cc(C(C)(O)C#Cc2ccc3nc(OCC(F)(F)F)n(-c4ccnc(N)n4)c3c2)no1 (stereo not drawn) [Example T1.1-29, 4-[3-(2-aminopyrimidin-4-yl)-2-(2,2,2-trifluoroethoxy)benzimidazol-5-yl]-2-(5-methylisoxazol-3-yl) but-3-yn-2-ol] | 2 nM
22 | Cc1nc([C@](C)(O)C#Cc2ccc3c(c2)n(-c2ccnc(N)n2)c(=O)n3C)no1 [Example T1.1-31, 3-(2-aminopyrimidin-4-yl)-5-[(3R)-3-hydroxy-3-(5-methyl-1,2,4-oxadiazol-3-yl)but-1-ynyl]-1-methyl-benzimidazol-2-one] | 2 nM
23 | Cc1cc(C(C)(O)C#Cc2ccc3c(c2)n(-c2ccnc(N)n2)c(=O)n3CC2CC2)no1 (stereo not drawn) [Example T1.1-32, 3-(2-aminopyrimidin-4-yl)-1-(cyclopropylmethyl)-5-[3-hydroxy-3-(5-methylisoxazol-3-yl)but-1-ynyl] benzimidazol-2-one] | 2 nM
24 | Cc1nc([C@](C)(O)C#Cc2ccc3c(C(=O)N4CC(O)C4)nn(-c4ccnc(N)n4)c3c2)no1 [Example T1.1-34, [1-(2-aminopyrimidin-4-yl)-6-[(3R)-3-hydroxy-3-(5-methyl-1,2,4-oxadiazol-3-yl)but-1-ynyl]indazol-3-yl]-(3-hydroxyazetidin-1-yl)methanone] | 2 nM
25 | Cc1cc([C@](C)(O)C#Cc2ccc3c(CN4CCOCC4)nn(-c4ccnc(N)n4)c3c2)no1 [Example T1.1-38, (2R)-4-[1-(2-aminopyrimidin-4-yl)-3-(morpholinomethyl)indazol-6-yl]-2-(5-methylisoxazol-3-yl)but-3-yn-2-ol] | 2 nM
26 | CN(C)C(=O)c1nn(-c2ccnc(N)n2)c2cc(C#CC3(O)CCn4ccnc43)ccc12 (stereo not drawn) [Example T1.1-39, 1-(2-aminopyrimidin-4-yl)-6-[2-(7-hydroxy-5,6-dihydropyrrolo[1,2-a]imidazol-7-yl)ethynyl]-N,N-dimethyl-indazole-3-carboxamide] | 2 nM
27 | Nc1nccc(-n2nc(C(=O)N3CCOCC3)c3ccc(C#CC4(O)CCn5ccnc54)cc32)n1 (stereo not drawn) [Example T1.1-41, [1-(2-aminopyrimidin-4-yl)-6-[2-(7-hydroxy-5,6-dihydropyrrolo[1,2-a]imidazol-7-yl)ethynyl]indazol-3-yl]-morpholino-methanone] | 2 nM
28 | Cc1cc(C(C)(O)C#Cc2ccc3nc(OC4CCOCC4)n(-c4ccnc(N)n4)c3c2)no1 (stereo not drawn) [Example T1.1-42, 4-[3-(2-aminopyrimidin-4-yl)-2-tetrahydropyran-4-yloxy-benzimidazol-5-yl]-2-(5-methylisoxazol-3-yl)but-3-yn-2-ol] | 3 nM
29 | COCCOc1nc2ccc(C#C[C@@](C)(O)c3cc(C)on3)cc2n1-c1ccnc(N)n1 [Example T1.1-44, (2R)-4-[3-(2-aminopyrimidin-4-yl)-2-(2-methoxyethoxy)benzimidazol-5-yl]-2-(5-methylisoxazol-3-yl)but-3-yn-2-ol] | 3 nM
30 | CC(O)(C#Cc1ccc2nc(OCC(F)(F)F)n(-c3ccnc(N)n3)c2c1)c1ncccn1 (stereo not drawn) [Example T1.1-46, 4-[3-(2-aminopyrimidin-4-yl)-2-(2,2,2-trifluoroethoxy)benzimidazol-5-yl]-2-pyrimidin-2-yl-but-3-yn-2-ol] | 3 nM
31 | Cc1nc([C@](C)(O)C#Cc2ccc3nc(OC4COC4)n(-c4ccnc(N)n4)c3c2)no1 [Example T1.1-47, (2R)-4-[3-(2-aminopyrimidin-4-yl)-2-(oxetan-3-yloxy)benzimidazol-5-yl]-2-(5-methyl-1,2,4-oxadiazol-3-yl)but-3-yn-2-ol] | 3 nM
32 | COCCOc1nc2ccc(C#C[C@@](C)(O)c3noc(C)n3)cc2n1-c1ccnc(N)n1 [Example T1.1-51, (2R)-4-[3-(2-aminopyrimidin-4-yl)-2-(2-methoxyethoxy)benzimidazol-5-yl]-2-(5-methyl-1,2,4-oxadiazol-3-yl)but-3-yn-2-ol] | 4 nM
33 | CC(=O)N1CC(Oc2nc3ccc(C#CC(C)(O)c4cc(C)on4)cc3n2-c2ccnc(N)n2)C1 (stereo not drawn) [Example T1.1-55, 1-[3-[1-(2-aminopyrimidin-4-yl)-6-[3-hydroxy-3-(5-methylisoxazol-3-yl)but-1-ynyl]benzimidazol-2-yl]oxyazetidin-1-yl]ethanone] | 4 nM
